Assay results reported in patent publication US10457709B2, “Antimicrobial peptides, their variants and uses” (priority 2015, dated 2019).
Square brackets hold non-standard residues; d marks the D form. Ends that are not written are not given here. Peptide text beside a SMILES is read from it.

Assays:
[1] = tested on: Escherichia coli (ATCC 25922); test: microbe, parasite or virus in culture; format: cell-based; details: ATCC 25922
Description: (§1) Minimum inhibition concentrations (MICs) were determined against Escherichia coli (ATCC 25922), Staphylococcus aureus (ATCC 25923), Klebsiella pneumoniae (ATCC 10031) and Pseudomonas aeruginosa (ATCC 27853). Also clinical strains of E. coli, K. pneumoniae, E. cloacae, P. aeruginosa, Serratia marcescens, Proteus mirabilis, S. pneumoniae, Acinetobacter baumannii, A. johnsonii and S. aureus were used for MICs assays. Additionally, clinical strains of yeast including Candida albicans, C. glabrata, C. parapsilosis and C. quillermondiae were used. The susceptibility of these microorganisms to Chain peptides were determined using micro broth dilution assay. Colonies of the respective microorganism from Muller Hinton (MH) agar plates incubated overnight were suspended in MH broth media and final concentration of microorganism was adjusted to 5.0×10^5 cfu/ml. An aliquot of 10 μl of each Chain peptide, or gentamicin, tetracycline as reference antibiotics were added in differing concentrations along with 90 μl of bacterial suspension to 96 well polypropylene plates and incubated at 37° C. for 20 to 24 hours. Concentrations of Chain peptides and reference antibiotics ranged from 0.125 to 128 μg/ml and the MICs were recorded as the lowest concentration with no visual growth of bacteria. Similarly, antifungal MICs were tested in Potato dextrose broth.

[2] = tested on: Klebsiella pneumoniae (ATCC 10031); test: microbe, parasite or virus in culture; format: cell-based; details: ATCC 10031
Description: as §1

[3] = tested on: Pseudomonas aeruginosa (ATCC 27853); test: microbe, parasite or virus in culture; format: cell-based; details: ATCC 27853
Description: as §1

[4] = tested on: Staphylococcus aureus (ATCC 25923); test: microbe, parasite or virus in culture; format: cell-based; details: ATCC 25923
Description: as §1

[5] = up to 45° C. for over 14 days; radial diffusion assay
Description: FIG. 8a. […] Antibacterial activity was tested by aliquoting 20 μg of peptides incubated at different temperature and activity was measured by zone of inhibition. Peptides at −20° C. served as control.
(§2) FIG. 8b. Thermostability of the chain peptides 201 (A-D) and 204 (E-H) tested at various temperatures over a period of 14 days by radial diffusion assay. Antibacterial activity was tested by aliquoting 20 μg of peptides incubated at different temperature and activity was measured by zone of inhibition. Peptides at −20° C. served as control.
as §2, with “8c.” for “8b.”, “306” for “201”, “308” for “204”
(§3) Thermal stability was evaluated by diluting peptides to the concentration of 2 mg/ml in PBS buffer (pH 7.4) and incubating at different temperatures, such as +4° C., 25° C. (RT), 37° C. and 45° C., peptides stored at −20° C. were used as control. After each time interval, 100 μl (2 mg/ml) of peptides were taken and stored at −20° C. for radial diffusion assay to determine the antibacterial activity (FIG. 8). Peptides were also tested by diluting them at different pH values starting from pH 4 to 9. The effect of NaCl on the antimicrobial activity was tested by adding different concentrations (50, 100 and 200 mM) of NaCl to MH medium and the minimum inhibitory concentrations were tested against 4 ATCC bacterial strains.

[6] = pH 4 to 9; radial diffusion assay
Description: FIG. 9a. pH stability of chain peptides 104 and 105 was determined by radial diffusion assay (RDA). Different pH ranging from 4-9 was used to check the zone of inhibition.
FIG. 9b. pH stability of chain peptides 201 and 204 was determined by radial diffusion assay (RDA). Different pH ranging from 4-9 was used to check the zone of inhibition.
FIG. 9c. pH stability of chain peptides 306 and 308 was determined by radial diffusion assay (RDA). Different pH ranging from 4-9 was used to check the zone of inhibition.
as §3

human erythrocytes = format: cell-based
Description: In hemolysis assays, the ability of peptides at 128 μg/ml concentration to lyse human erythrocytes to release hemoglobin was measured. The peptides described here preferably have low hemolytic activity (0.2 to 3.8% hemolysis) in mammal body. […] These peptides are useful as antimicrobial drugs as they show little or no side effects at concentrations needed to kill bacteria.
Minimum inhibition concentrations (MICs) were tested by microbroth dilution method and Chain 104, 105 and 109 inhibited the growth of Escherichia coli (ATCC 25922), Staphylococcus aureus (ATCC 25923), Klebsiella pneumoniae (ATCC 10031) and Pseudomonas aeruginosa (ATCC 27853) between 1-8 μg/ml respectively (Tables 3a, 3b and 3c). The membranolytic activities of the peptides were tested by measuring the release of hemoglobin from erythrocytes of fresh blood donated by voluntiers. Hemoglobin levels were determined spectrometrically by taking OD at 540 nm by following the protocol of Schmidtchen et al., 2011.

S. aureus COL (MRSA) = format: cell-based, Staphylococcus aureus
Description: as §1
(§4) Peptides Chain 104, Chain 105, Chain 201, Chain 308, Chain 310 were tested against antibiotic-sensitive strains of S. aureus RN4220 and methicillin resistant strains of S. aureus COL (MRSA). Chain peptides comprising of either L- or D-form amino acids were tested against these bacteria, and the D-form peptides were found have better activity compared to L-form (Table 6). Synergistic activity of chain peptides along with Ertapenem (4 μg/ml) was tested to know whether it will influence the activity against MRSA strains. […] Chain 310 has the best antibacterial activity against the MRSA strains with a MIC of 0.06 & 0.03 μg/ml along with Ertapenem (4 μg/ml) for both forms of L and D-peptides (Table 6).

S. aureus RN4220 = format: cell-based, Staphylococcus aureus; details: antibiotic sensitive strain S. aureus RN4220
Description: as §1, §4

[7] = tested on: MRSA strains (S. aureus COL); test: MIC, synergistic activity with Ertapenem (4 μg/ml); format: cell-based, Staphylococcus aureus; details: S. aureus COL, synergistic activity with 4 μg/ml Ertapenem
Description: as §1, §4

Compound	Minimum inhibitory concentration, Escherichia coli (ATCC 25922) [1] [µg/mL]	Minimum inhibitory concentration, Klebsiella pneumoniae (ATCC 10031) [2] [µg/mL]	Minimum inhibitory concentration, Pseudomonas aeruginosa (ATCC 27853) [3] [µg/mL]	Minimum inhibitory concentration, Staphylococcus aureus (ATCC 25923) [4] [µg/mL]	Thermostability (antibacterial activity retained) [5]	pH stability (antibacterial activity retained) [6]	Side effects to humans as tested by hemolysis assay (human erythrocytes)	Minimum inhibitory concentration (MIC), S. aureus COL (MRSA) (S. aureus COL (MRSA)) [µg/mL]	Minimum inhibitory concentration (MIC), S. aureus RN4220 (S. aureus RN4220) [µg/mL]	Minimum inhibitory concentration (MIC), S. aureus COL + 4 μg/ml Ertapenem [7] [µg/mL]
RLKRWRLFRKR [Chain306]	8	>128	64	2	not hindered	not hindered	–	–	–	–
RLKWFWLFRKR [Chain307]	8	16	1	4	–	–	little side effects	–	–	–
RKWRAMIRLHAKWLRK [Chain105]	–	–	–	–	not hindered	not hindered	little side effects	–	–	–
RKWRAMIRLHAKRLRK [Chain104]	–	–	–	–	not hindered	not hindered	little side effects	–	–	–
CC[C@@H](C)[C@@H](NC(=O)[C@@H](Cc1c[nH]c2ccccc12)NC(=O)[C@H](N)CCCCN)C(=O)N[C@@H](C(=O)N[C@H](Cc1c[nH]c2ccccc12)C(=O)N[C@H](CCCNC(=N)N)C(=O)N[C@H](Cc1c[nH]c2ccccc12)C(=O)N[C@H](CCCNC(=N)N)C(=O)N[C@H](Cc1ccccc1)C(=O)N[C@H](CCCCN)C(=O)N[C@H](CCCNC(=N)N)C(=O)O)C(C)C [201 D] (H-[dK][dW][dI][dV][dW][dR][dW][dR][dF][dK][dR]-OH)	–	–	–	–	–	–	–	2	2	1
CC(C)C[C@@H](NC(=O)[C@@H](CCCCN)NC(=O)[C@@H](CCCCN)NC(=O)[C@@H](Cc1ccccc1)NC(=O)[C@@H](CC(C)C)NC(=O)[C@@H](Cc1c[nH]c2ccccc12)NC(=O)[C@@H](CCCNC(=N)N)NC(=O)[C@@H](Cc1c[nH]c2ccccc12)NC(=O)[C@@H](CCCCN)NC(=O)[C@@H](CCCNC(=N)N)NC(=O)[C@H](N)CCCCN)C(=O)O [310 D] (H-[dK][dR][dK][dW][dR][dW][dL][dF][dK][dK][dL]-OH)	–	–	–	–	–	–	–	>64	>64	<0.03
RRLIWRRFKWLR [Chain204]	2	32	4	16	not hindered	not hindered	little side effects	–	–	–
RKWRAMIRLHAKRLRK [Compound 104]	–	–	–	–	–	–	–	>64	>64	0.25
KRKWRWLFKKL [Chain310]	4	16	1	8	–	–	little side effects	–	–	–
WWRLHAKWKLW [Chain109]	–	–	–	–	–	–	little side effects	–	–	–
KWIVWRWRFKR [Chain201]	2	8	8	4	not hindered	not hindered	little side effects	–	–	–
RLKWFLLFRKR [Chain308]	1	4	2	4	not hindered	not hindered	little side effects	–	–	–
